Test results from patent US9469650B2, “Melampomagnolide B derivatives” (BOARD OF TRUSTEES OF THE UNIVERSITY OF ARKANSAS, priority 2013, dated 2016).
Read-outs that look alike come from different tables or passages of the source.

Key:
K-562 = assay: panel of 60 human tumor cell lines, growth inhibition (Leukemia); details: K-562
MOLT-4 = assay: as above; details: MOLT-4
SR = assay: as above
LOX IMVI = assay: panel of 60 human tumor cell lines, growth inhibition (Melanoma)
M14 = assay: as above; details: M14
SK-MEL-28 = assay: as above; details: SK-MEL-28
SF-268 = assay: panel of 60 human tumor cell lines, growth inhibition (CNS Cancer); details: SF-268
SF-295 = assay: as above; details: SF-295
SNB-19 = assay: as above; details: SNB-19

Question: What does the source list for C=C1C(=O)O[C@H]2[C@H]1CC/C(COC(=O)CCC(=O)N1CCC(C)CC1)=C\CC[C@@]1(C)O[C@@H]21 [JVM 2-70]?
Answer: Percent Growth (HL-60(TB); Log10 Concentration −4.0): −59%; Percent Growth (HL-60(TB); Log10 Concentration −5.0): −12%; Percent Growth (HL-60(TB); Log10 Concentration −6.0): 112%; Percent Growth (HL-60(TB); Log10 Concentration −7.0): 111%; Percent Growth (HL-60(TB); Log10 Concentration −8.0): 110%; GI50 (HL-60(TB); NCI five dose): 3.16 µM; TGI (HL-60(TB); NCI five dose): 7.96E−6; CC50 (HL-60(TB); read-out: LC50, NCI five dose): 63.1 µM; Percent Growth (K-562; Log10 Concentration −4.0): −38%; Percent Growth (K-562; Log10 Concentration −5.0): 7%; Percent Growth (K-562; Log10 Concentration −6.0): 90%; Percent Growth (K-562; Log10 Concentration −7.0): 109%; Percent Growth (K-562; Log10 Concentration −8.0): 109%; GI50 (K-562; NCI five dose): 3.06 µM; TGI (K-562; NCI five dose): 1.45E−5; Percent Growth (MOLT-4; Log10 Concentration −4.0): −49%; Percent Growth (MOLT-4; Log10 Concentration −5.0): −9%; Percent Growth (MOLT-4; Log10 Concentration −6.0): 115%; Percent Growth (MOLT-4; Log10 Concentration −7.0): 119%; Percent Growth (MOLT-4; Log10 Concentration −8.0): 110%; GI50 (MOLT-4; NCI five dose): 3.33 µM; TGI (MOLT-4; NCI five dose): 8.45E−6; Percent Growth (SR; Log10 Concentration −4.0): −38%; Percent Growth (SR; Log10 Concentration −5.0): 6%; Percent Growth (SR; Log10 Concentration −6.0): 84%; Percent Growth (SR; Log10 Concentration −7.0): 102%; Percent Growth (SR; Log10 Concentration −8.0): 101%; GI50 (SR; NCI five dose): 2.72 µM; TGI (SR; NCI five dose): 1.39E−5; Percent Growth (LOX IMVI; Log10 Concentration −4.0): −84%; Percent Growth (LOX IMVI; Log10 Concentration −5.0): 4%; Percent Growth (LOX IMVI; Log10 Concentration −6.0): 91%; Percent Growth (LOX IMVI; Log10 Concentration −7.0): 96%; Percent Growth (LOX IMVI; Log10 Concentration −8.0): 96%; GI50 (LOX IMVI; NCI five dose): 2.95 µM; TGI (LOX IMVI; NCI five dose): 1.10E−5; Percent Growth (M14; Log10 Concentration −4.0): −81%; Percent Growth (M14; Log10 Concentration −5.0): 21%; Percent Growth (M14; Log10 Concentration −6.0): 84%; Percent Growth (M14; Log10 Concentration −7.0): 94%; Percent Growth (M14; Log10 Concentration −8.0): 91%; GI50 (M14; NCI five dose): 3.44 µM; TGI (M14; NCI five dose): 1.60E−5; Percent Growth (SK-MEL-28; Log10 Concentration −4.0): −79%; Percent Growth (SK-MEL-28; Log10 Concentration −5.0): 4%; Percent Growth (SK-MEL-28; Log10 Concentration −6.0): 95%; Percent Growth (SK-MEL-28; Log10 Concentration −7.0): 100%; Percent Growth (SK-MEL-28; Log10 Concentration −8.0): 89%; GI50 (SK-MEL-28; NCI five dose): 3.1 µM; TGI (SK-MEL-28; NCI five dose): 1.11E−5; Percent Growth (SF-268; Log10 Concentration −4.0): −72%; Percent Growth (SF-268; Log10 Concentration −5.0): 67%; Percent Growth (SF-268; Log10 Concentration −6.0): 93%; Percent Growth (SF-268; Log10 Concentration −7.0): 101%; Percent Growth (SF-268; Log10 Concentration −8.0): 100%; GI50 (SF-268; NCI five dose): 13.2 µM; TGI (SF-268; NCI five dose): 3.02E−5; Percent Growth (SF-295; Log10 Concentration −4.0): −72%; Percent Growth (SF-295; Log10 Concentration −5.0): 74%; Percent Growth (SF-295; Log10 Concentration −6.0): 93%; Percent Growth (SF-295; Log10 Concentration −7.0): 93%; Percent Growth (SF-295; Log10 Concentration −8.0): 89%; GI50 (SF-295; NCI five dose): 14.7 µM; TGI (SF-295; NCI five dose): 3.23E−5; Percent Growth (SNB-19; Log10 Concentration −4.0): −80%; Percent Growth (SNB-19; Log10 Concentration −5.0): 73%; Percent Growth (SNB-19; Log10 Concentration −6.0): 95%
